Assay results as given in patent US9303012B2, “Pyridine-2-amides useful as CB2 agonists” (Hoffmann-La Roche Inc., priority 2012, dated 2016).

How the values were obtained:
human CB2 receptors = human CB2 receptors (Homo sapiens (Human), UniProt P34972); experiment: functional cAMP assay, CHO cells expressing human CB2 receptors; assay type: cell-based
Description: (§1) CHO cells expressing human CB1 or CB2 receptors are seeded 17-24 hours prior to the experiment 50.000 cells per well in a black 96 well plate with flat clear bottom (Corning Costar #3904) in DMEM (Invitrogen No. 31331), 1×HT supplement, with 10% fetal calf serum and incubated at 5% CO2 and 37° C. in a humidified incubator. The growth medium was exchanged with Krebs Ringer Bicarbonate buffer with 1 mM IBMX and incubated at 30° C. for 30 min. Compounds were added to a final assay volume of 100 μl and incubated for 30 min at 30° C. Using the cAMP-Nano-TRF detection kit the assay (Roche Diagnostics) was stopped by the addition of 50 μl lysis reagent (Tris, NaCl, 1.5% Triton X100, 2.5% NP40, 10% NaN3) and 50 μl detection solutions (20 μM mAb Alexa700-cAMP 1:1, and 48 μM Ruthenium-2-AHA-cAMP) and shaken for 2 h at room temperature. The time-resolved energy transfer is measured by a TRF reader (Evotec Technologies GmbH), equipped with a ND:YAG laser as excitation source. The plate is measured twice with the excitation at 355 nm and at the emission with a delay of 100 ns and a gate of 100 ns, total exposure time 10 s at 730 (bandwidth 30 nm) or 645 nm (bandwidth 75 nm), respectively. The FRET signal is calculated as follows: FRET=T730-Alexa730-P(T645-B645) with P=Ru730-B730/Ru645-B645, where T730 is the test well measured at 730 nM, T645 is the test well measured at 645 nm, B730 and B645 are the buffer controls at 730 nm and 645 nm, respectively. cAMP content is determined from the function of a standard curve spanning from 10 μM to 0.13 nM cAMP.
(§2) EC50 values were determined using Activity Base analysis (ID Business Solution, Limited). The EC50 values for a wide range of cannabinoid agonists generated from this assay were in agreement with the values published in the scientific literature.

human CB1 receptors = human CB1 receptors (Homo sapiens (Human), UniProt P21554); experiment: functional cAMP assay, CHO cells expressing human CB1 receptors; assay type: cell-based
human CB1 receptors, sequence (P21554 whole entry): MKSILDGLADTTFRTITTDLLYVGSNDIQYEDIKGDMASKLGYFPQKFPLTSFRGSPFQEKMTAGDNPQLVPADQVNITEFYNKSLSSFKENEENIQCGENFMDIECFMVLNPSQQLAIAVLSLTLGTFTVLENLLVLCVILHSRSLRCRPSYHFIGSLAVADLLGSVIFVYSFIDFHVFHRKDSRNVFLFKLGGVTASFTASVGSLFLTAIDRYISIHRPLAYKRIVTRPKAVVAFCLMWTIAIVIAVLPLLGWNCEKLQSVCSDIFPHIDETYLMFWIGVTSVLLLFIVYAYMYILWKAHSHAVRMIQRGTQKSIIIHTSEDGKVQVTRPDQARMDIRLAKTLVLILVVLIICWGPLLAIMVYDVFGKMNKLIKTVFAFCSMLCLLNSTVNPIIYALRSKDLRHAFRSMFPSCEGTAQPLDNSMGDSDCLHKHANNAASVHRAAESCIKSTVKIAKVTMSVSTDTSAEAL
Description: as §1, §2

human CB2 receptors, sequence (P34972 whole entry): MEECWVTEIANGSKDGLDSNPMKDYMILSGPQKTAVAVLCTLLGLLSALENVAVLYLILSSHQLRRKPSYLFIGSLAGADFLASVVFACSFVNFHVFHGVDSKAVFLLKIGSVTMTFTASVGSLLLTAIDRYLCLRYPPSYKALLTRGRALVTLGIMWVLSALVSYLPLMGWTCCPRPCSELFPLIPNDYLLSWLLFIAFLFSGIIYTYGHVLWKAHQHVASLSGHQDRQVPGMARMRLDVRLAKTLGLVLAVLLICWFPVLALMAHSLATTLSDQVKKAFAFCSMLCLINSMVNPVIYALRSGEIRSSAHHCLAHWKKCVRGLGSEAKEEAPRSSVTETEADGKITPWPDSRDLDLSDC

| SMILES | EC50 (human CB2 receptors) [nM] | EC50 (human CB1 receptors) [nM] |
| --- | --- | --- |
| CN1C(=O)CN(C(=O)c2ccc(N3CC(F)(F)C3)c(OCC3CC3)n2)[C@@H]1C(C)(C)C [Example 56, (R)-2-tert-Butyl-1-[6-cyclopropylmethoxy-5-(3,3-difluoro-azetidin-1-yl)-pyridine-2-carbonyl]-3-methyl-imidazolidin-4-one] | 36.9 | > 10000 |
| O=C(c1ccc(N2CC(F)(F)C2)c(OCC2CC2)n1)N1CCCC12CC2 [Example 57, (4-Aza-spiro[2.4]hept-4-yl)-[6-cyclopropylmethoxy-5-(3,3-difluoro-azetidin-1-yl)-pyridin-2-yl]-methanone] | 1.8 | > 10000 |
| CC1(C)CC(C2CCN(C(=O)c3ccc(N4CC(F)(F)C4)c(OCC4CC4)n3)CC2)C(=O)N1 (stereo not shown) [Example 58, 3-{1-[6-Cyclopropylmethoxy-5-(3,3-difluoro-azetidin-1-yl)-pyridine-2-carbonyl]-piperidin-4-yl}-5,5-dimethyl-pyrrolidin-2-one] | 594 | > 10000 |
| O=C(c1ccc(N2CC(F)(F)C2)c(OCC2CC2)n1)N1C[C@@H]2CC[C@H]1C2 [Example 59, (1S,4R)-2-Aza-bicyclo[2.2.1]hept-2-yl-[6-cyclopropylmethoxy-5-(3,3-difluoro-azetidin-1-yl)-pyridin-2-yl]-methanone] | 14.2 | > 10000 |
| NC(=O)[C@@H]1CC(F)(F)CN1C(=O)c1ccc(N2CC(F)(F)C2)c(OCC2CC2)n1 [Example 60, (S)-1-[6-Cyclopropylmethoxy-5-(3,3-difluoro-azetidin-1-yl)-pyridine-2-carbonyl]-4,4-difluoro-pyrrolidine-2-carboxylic acid amide] | 3.08 | > 10000 |
| CC1(O)CCN(C(=O)c2ccc(N3CC(F)(F)C3)c(OCC3CC3)n2)CC1 [Example 61, [6-Cyclopropylmethoxy-5-(3,3-difluoro-azetidin-1-yl)-pyridin-2-yl]-(4-hydroxy-4-methyl-piperidin-1-yl)-methanone] | 391 | > 10000 |
| O=C(c1ccc(N2CC(F)(F)C2)c(OCC2CC2)n1)N1C[C@@H]2C[C@H]1CS2 [Example 62, [6-Cyclopropylmethoxy-5-(3,3-difluoro-azetidin-1-yl)-pyridin-2-yl]-(1S,4S)-2-thia-5-aza-bicyclo[2.2.1]hept-5-yl-methanone] | 9.1 | > 10000 |
| O=C(c1ccc(N2CC(F)(F)C2)c(OCC2CC2)n1)N1C[C@@H]2C[C@H]1CN2Cc1ccccc1 [Example 63, ((1S,4S)-5-Benzyl-2,5-diaza-bicyclo[2.2.1]hept-2-yl)-[6-cyclopropylmethoxy-5-(3,3-difluoro-azetidin-1-yl)-pyridin-2-yl]-methanone] | 198 | > 10000 |
| CC1C(c2ccccc2)CCCN1C(=O)c1ccc(N2CC(F)(F)C2)c(OCC2CC2)n1 (stereo not shown) [Example 64, [6-Cyclopropylmethoxy-5-(3,3-difluoro-azetidin-1-yl)-pyridin-2-yl]-(2-methyl-3-phenyl-piperidin-1-yl)-methanone] | 40.5 | > 10000 |
| O=C(c1ccc(N2CC(F)(F)C2)c(OCC2CC2)n1)N1C[C@@H]2C[C@H]1CO2 [Example 65, [6-Cyclopropylmethoxy-5-(3,3-difluoro-azetidin-1-yl)-pyridin-2-yl]-(1S,4S)-2-oxa-5-aza-bicyclo[2.2.1]hept-5-yl-methanone] | 100 | > 10000 |
| CC1(C)CC(O)CCN1C(=O)c1ccc(N2CC(F)(F)C2)c(OCC2CC2)n1 (stereo not shown) [Example 66, [6-Cyclopropylmethoxy-5-(3,3-difluoro-azetidin-1-yl)-pyridin-2-yl]-(4-hydroxy-2,2-dimethyl-piperidin-1-yl)-methanone] | 5.6 | > 10000 |
| CCOC(=O)C1CCCN(C(=O)c2ccc(N3CC(F)(F)C3)c(OCC3CC3)n2)C1c1ccccc1 (stereo not shown) [Example 67, 1-[6-Cyclopropylmethoxy-5-(3,3-difluoro-azetidin-1-yl)-pyridine-2-carbonyl]-2-phenyl-piperidine-3-carboxylic acid ethyl ester] | 368 | > 10000 |
| NC(=O)[C@@H]1CC(F)(F)CN1C(=O)c1ccc(C2CC2)c(OCC2CC2)n1 [Example 68, (S)-1-(5-Cyclopropyl-6-cyclopropylmethoxy-pyridine-2-carbonyl)-4,4-difluoro-pyrrolidine-2-carboxylic acid amide] | 2.7 | > 10000 |
| NC(=O)[C@@H]1C[C@H](F)CN1C(=O)c1ccc(C2CC2)c(OCC2CC2)n1 [Example 69, (2S,4S)-1-(5-Cyclopropyl-6-cyclopropylmethoxy-pyridine-2-carbonyl)-4-fluoro-pyrrolidine-2-carboxylic acid amide] | 1040 | > 10000 |
| O=C(c1ccc(N2CC(F)(F)C2)c(OCC2CC2)n1)N1CC2CCOC2C1 (stereo not shown) [Example 70, [6-Cyclopropylmethoxy-5-(3,3-difluoro-azetidin-1-yl)-pyridin-2-yl]-(hexahydrofuro[2,3-c]pyrrol-5-yl)-methanone] | 104 | > 10000 |
| O=C(c1ccc(N2CC(F)(F)C2)c(OCC2CC2)n1)N1CC2(C1)CS(=O)(=O)C2 [Example 71, [6-Cyclopropylmethoxy-5-(3,3-difluoro-azetidin-1-yl)-pyridin-2-yl]-(2,2-dioxo-2λ6-thia-6-aza-spiro[3.3]hept-6-yl)-methanone] | 444 | > 10000 |
| CC(C)(C)N(CCC(N)=O)C(=O)c1ccc(N2CC(F)(F)C2)c(OCC2CC2)n1 [Example 72, 6-Cyclopropylmethoxy-5-(3,3-difluoro-azetidin-1-yl)-pyridine-2-carboxylic acid tert-butyl-(2-carbamoyl-ethyl)-amide] | 664 | > 10000 |
| NC(=O)[C@@H]1CCCN1C(=O)c1ccc(C2CC2)c(OCC2CC2)n1 [Example 73, (S)-1-(5-Cyclopropyl-6-cyclopropylmethoxy-pyridine-2-carbonyl)-pyrrolidine-2-carboxylic acid amide] | 636 | > 10000 |
| CC(C)(C)OC(=O)N1CCC2(CCCN2C(=O)c2ccc(N3CC(F)(F)C3)c(OCC3CC3)n2)CC1 [Example 74, 1-[6-Cyclopropylmethoxy-5-(3,3-difluoro-azetidin-1-yl)-pyridine-2-carbonyl]-1,8-diaza-spiro[4.5]decane-8-carboxylic acid tert-butyl ester] | 11.5 | > 10000 |
| NC(=O)[C@@H]1CC(F)(F)CN1C(=O)c1ccc(C2CC2)c(OCC2CCCO2)n1 (stereo partly drawn) [Example 75, (S)-1-{5-Cyclopropyl-6-[(R,S)-1-(tetrahydro-furan-2-yl)methoxy]-pyridine-2-arbonyl}-4,4-difluoro-pyrrolidine-2-carboxylic acid amide] | 16.2 | > 10000 |
| NC(=O)[C@@H]1CC(F)(F)CN1C(=O)c1ccc(C2CC2)c(Cc2ccc(F)cc2)n1 [Example 76, (S)-1-[5-Cyclopropyl-6-(4-fluoro-benzyl)-pyridine-2-carbonyl]-4,4-difluoro-pyrrolidine-2-carboxylic acid amide] | 0.2 | 167 |
| CC1(C)C[C@H](C(N)=O)N(C(=O)c2ccc(N3CC(F)(F)C3)c(OCC3CC3)n2)C1 [Example 77, (+)-1-[6-Cyclopropylmethoxy-5-(3,3-difluoro-azetidin-1-yl)-pyridine-2-carbonyl]-4,4-dimethyl-pyrrolidine-2-carboxylic acid amide] | 194 | > 10000 |
| CC1(C)C[C@@H](C(N)=O)N(C(=O)c2ccc(N3CC(F)(F)C3)c(OCC3CC3)n2)C1 [Example 78, (−)-1-[6-Cyclopropylmethoxy-5-(3,3-difluoro-azetidin-1-yl)-pyridine-2-carbonyl]-4,4-dimethyl-pyrrolidine-2-carboxylic acid amide] | 1.2 | > 10000 |
| NC(=O)[C@@H]1C[C@H](O)CN1C(=O)c1ccc(N2CC(F)(F)C2)c(OCC2CC2)n1 [Example 79, (2S,4S)-1-[6-Cyclopropylmethoxy-5-(3,3-difluoro-azetidin-1-yl)-pyridine-2-carbonyl]-4-hydroxy-pyrrolidine-2-carboxylic acid amide] | 519 | > 10000 |
| NC(=O)[C@@H]1C[C@H](F)CN1C(=O)c1ccc(N2CC(F)(F)C2)c(OCC2CC2)n1 [Example 80, (2S,4S)-1-[6-Cyclopropylmethoxy-5-(3,3-difluoro-azetidin-1-yl)-pyridine-2-carbonyl]-4-fluoro-pyrrolidine-2-carboxylic acid amide] | 342 | > 10000 |
| Cc1nnc(CN(C(=O)c2ccc(N3CC(F)(F)C3)c(OCC3CC3)n2)C2CC2)o1 [Example 81, 6-Cyclopropylmethoxy-5-(3,3-difluoro-azetidin-1-yl)-pyridine-2-carboxylic acid cyclopropyl-(5-methyl-[1,3,4]oxadiazol-2-ylmethyl)-amide] | 652 | > 10000 |
